Like-named read-outs stand apart in the source and are kept apart here.
Tests used:
[1] = biological target: T1, HDAC3 (Homo sapiens, UniProt O15379); experiment: HDAC fluorometric activity assay, HDAC3; type: biochemical
T1 construct: purchased Enzo Life Sciences, Farmingdale, NY, USA
Protocol: Pan HDAC enzyme (all the known class I HDACs-HDAC1, HDAC2, HDAC3, HDAC8 and class II HDACs 4-7, 9 and 10), HDAC subtype 1, 3 and 4 activity were determined by using the HDAC fluorometric cellular activity assay (Enzo Life Sciences, Farmingdale, NY, USA) according to the manufacturer’s protocol. […] Percent activity for each of the test compounds is calculated as follows:
Activity = {(Sc − B)/(S° − B)} × 100. […] IC50 was then calculated and represented as mean ± SD.

[2] = tested on: Salmonella typhimurium TA100; type: cell-based
Protocol: Five strains of Salmonella typhimurium, TA98, TA102, TA100, TA1537, and TA1535, were obtained from Moltox (Boone, NC, USA). Mutagenicity was evaluated by the incorporation method in the presence or absence of S9 metabolic activation [29]. A volume of 100 µL of each test bacterial culture (10^9 cells/mL), 2 mL soft agar (0.6% agar, 0.5% NaCl, 5 mM histidine, and 50 mM biotin, pH 7.4, 40–50 °C), 0.5 mL S9 mixture (if necessary), and AzP were mixed well in a test tube. […] The revertant colonies were counted, and a positive mutagenic response was identified when (i) the number of revertants was at least double the spontaneous yield; (ii) a statistical significance (p ≤ 0.05) was found; and (iii) a reproducible positive dose response was present.

[3] = tested on: IEC-6 cells; experiment: LPS-induced MAPK/Akt phosphorylation in IEC-6 cells (Western blot); type: cell-based, Rat
Protocol: Figure 6 Western blotting of IEC-6 cells treated with LPS and/or AzP. (A) IEC-6 cells (1 × 10^6 cells/mL) were dispensed on 6 cm dishes and (A) treated with LPS (500 ng/mL) for 10, 20, 30, 60, and 90 min. Data expressed as means ± SD from 3 independent experiments. * p < 0.05 as compared with the resting. (B) Treatment with LPS (500 ng/mL) for 10 min as indicated. Cells were treated with the indicated concentrations of AzP (5, 10, and 20 μM) or vehicle for 30 min before treatment with LPS. Cell lysates were collected for Western blot targeting p-ERK phosphorylation (Thr202/Tyr204, B), MEK phosphorylation ([…], C), and Akt phosphorylation (Ser473, D). Data expressed as means ± SD from 3 independent experiments. ### p < 0.001 as compared with the resting, * p < 0.05, ** p < 0.01 and *** p < 0.001 as compared with the vehicle.
(§1) IEC-6 cells were incubated in different AzP concentrations with/without LPS stimulation for 24 h. The homogenate from cells or tissues was then centrifuged at 14,000× g for 10 min at 4 °C and the supernatant was collected. Protein separation was performed using 10% reducing SDS-PAGE, electrotransferred onto polyvinylidene difluoride (PVDF), and immunoblotted with antibodies against inflammatory proteins as well as β-actin as control. Densitometry was performed using BioLight software V2000.01 (Uhldingen-Mühlhofen, Germany). The optical density of specific protein was normalized to an internal control and expressed as a ratio to control.

[4] = tested on: Chinese Hamster Ovary cells (CHO-K1); experiment: Chromosome aberration assay; type: cell-based; conditions: for Number of cells with structural aberrations (%) B: chromosome break / Number of cells with structural aberrations (%) e: exchange / Number of cells with structural aberrations (%) G: chromosome gap / Number of cells with structural aberrations (%) b: chromatid break / Aberrant cell (%) With gap / Aberrant cell (%) Without gap / Number of cells with structural aberrations (%) D: dicentric / Number of cells with structural aberrations (%) g: chromatid gap: Chinese hamster
Protocol: Chinese hamster ovary epithelial cells (CHO-K1, American Type Culture Collection, Manassas, VA, USA) were cultured in 6-cm dishes at a density of 2 × 10^5 cells/mL for chromosomal abnormality analysis. […] Colemid (0.1 μg/mL) was administered 3 h before trypsinization, followed by treatment with 0.9% sodium citrate at 37 °C and Carnoy’s solution (methanol:acetic acid, 3:1). The cells were stained with 3% Giemsa solution in 0.07 M phosphate buffer (pH 6.8) on glass slides. […] The data were expressed as the total mean number of chromosomal aberrations per treatment ± standard deviation (SD) from three independent experiments.

[5] = tested on: IEC-6 cells; experiment: LPS-induced inflammatory protein expression in IEC-6 cells (Western blot); type: cell-based, Rat; conditions: LPS 500 ng/mL 8 h, AzP 1–20 μM
Protocol: Figure 5 Hierarchical clustering and KEGG analyses of gene profiles of the AzP-manipulated IEC-6 cells. (A) Two independent experiments were performed, samples were named C1, C2 as control group (1% dimethyl sulfoxide (DMSO)); LPS1, LPS2 as lipopolysaccharide (LPS) 500 ng/mL group; LPS + AzP1, LPS + AzP2 as LPS 500 ng/mL and AzP 20 μM group. Heat maps showing the clustering analysis of the IEC-6 cells with different treatments (1% DMSO, LPS 500 ng/mL and/or AzP 20 μM) indicates up-regulation (red), down-regulation (green), and mean gene expression (black). […] IEC-6 cells were treated with LPS 500 ng/mL for 8 h and/or AzP 1–20 μM, Western blot performed and immunoblotted with several inflammatory protein expressions including MMP-9 (C), IL-1β (D), iNOS (E), and IL-6 (F). Density was measured and calculated. ### p < 0.001 as compared with the control, ## p < 0.01 as compared with the control, # p < 0.05 as compared with the control, * p < 0.05 as compared with the LPS-treated group, ** p < 0.01 as compared with the LPS-treated group and *** p < 0.001 as compared with LPS-treated group.
as §1

T1 sequence (O15379 whole entry, species assumed): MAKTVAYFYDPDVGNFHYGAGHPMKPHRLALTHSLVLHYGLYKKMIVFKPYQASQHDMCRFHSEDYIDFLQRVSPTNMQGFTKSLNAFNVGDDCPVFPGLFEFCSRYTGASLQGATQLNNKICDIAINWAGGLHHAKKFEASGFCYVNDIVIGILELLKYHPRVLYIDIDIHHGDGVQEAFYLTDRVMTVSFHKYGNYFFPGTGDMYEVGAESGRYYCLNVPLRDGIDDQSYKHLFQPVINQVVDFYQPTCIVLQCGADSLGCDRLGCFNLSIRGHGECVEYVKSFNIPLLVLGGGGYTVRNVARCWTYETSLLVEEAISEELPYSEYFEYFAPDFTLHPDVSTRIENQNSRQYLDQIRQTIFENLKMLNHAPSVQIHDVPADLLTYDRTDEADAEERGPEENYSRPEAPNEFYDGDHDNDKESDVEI
T1 sequence (O75376 395-489 partner limits assumed, species assumed): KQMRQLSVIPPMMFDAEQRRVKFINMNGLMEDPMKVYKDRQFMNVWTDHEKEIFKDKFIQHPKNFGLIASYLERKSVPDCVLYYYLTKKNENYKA

CC(C)(C)OC(=O)NC(Cc1ccc(OCc2ccccc2)cn1)C(=O)Nc1ccc(CCCC(=O)NO)cc1 (stereo not shown) [AzP, Azatyrosine-phenylbutyric hydroxamides]
IC50 [1]: 660 ± 99 nM | Ames test result, TA100 (-S9) ([2]; -S9): Negative | Revertant colonies per plate (+S9) TA100 ([2]; AzP 0.00245 mg/plate): 106.7±2.2 | Revertant colonies per plate (-S9) TA100 ([2]; AzP 0.00245 mg/plate): 81±5 | Revertant colonies per plate (+S9) TA100 ([2]; AzP 0.0049 mg/plate): 106±4.4 | Revertant colonies per plate (-S9) TA100 ([2]; AzP 0.0049 mg/plate): 78.7±2.7 | Revertant colonies per plate (+S9) TA100 ([2]; AzP 0.0098 mg/plate): 107.3±1.3 | Revertant colonies per plate (-S9) TA100 ([2]; AzP 0.0098 mg/plate): 81.7±2.7 | Revertant colonies per plate (+S9) TA100 ([2]; AzP 0.0195 mg/plate): 110.3±3.8 | Revertant colonies per plate (-S9) TA100 ([2]; AzP 0.0195 mg/plate): 89.7±9 | Revertant colonies per plate (+S9) TA100 ([2]; AzP 0.0391 mg/plate): 150.3±19.7 | Revertant colonies per plate (-S9) TA100 ([2]; AzP 0.0391 mg/plate): 90.8±9.6 | Revertant colonies per plate (+S9) TA100 ([2]; AzP 0.0781 mg/plate): 153±3.1 | Revertant colonies per plate (-S9) TA100 ([2]; AzP 0.0781 mg/plate): 88.7±1.2 | Revertant colonies per plate (+S9) TA100 ([2]; AzP 0.156 mg/plate): 104±8 | Revertant colonies per plate (+S9) TA100 ([2]; AzP 0.3125 mg/plate): 92.2±5.2 | Ames test result, TA100 (|S9) ([2]; second S9 group): Negative | LPS-induced ERK activation (phosphorylation) ([3]; LPS 500 ng/mL 10 min, AzP 5–20 μM): dose-dependently reverse | LPS-induced Akt phosphorylation ([3]; LPS 10 min, AzP 5–20 μM): concentration-dependently reversed | LPS-induced MEK1/2 phosphorylation ([3]; LPS 10 min, AzP 5–20 μM): concentration-dependently reversed | JNK phosphorylation ([3]; LPS, data not shown): unaffected | p38 phosphorylation ([3]; LPS, data not shown): unaffected | IKK phosphorylation ([3]; Western blot): unaffected | p65 phosphorylation ([3]; Western blot): unaffected | Chromosome aberration assay result [4]: Negative | Number of cells with structural aberrations (%) B: chromosome break ([4]; 3 h, 5 µg/mL): 0.00±0.00% | Number of cells with structural aberrations (%) e: exchange ([4]; 3 h, 5 µg/mL): 0.00±0.00% | Number of cells with structural aberrations (%) B: chromosome break ([4]; 3 h, 10 µg/mL): 0.00±0.00% | Number of cells with structural aberrations (%) G: chromosome gap ([4]; 3 h, 10 µg/mL): 0.00±0.00% | Number of cells with structural aberrations (%) b: chromatid break ([4]; 3 h, 10 µg/mL): 0.00±0.00% | Number of cells with structural aberrations (%) e: exchange ([4]; 3 h, 10 µg/mL): 0.00±0.00% | Number of cells with structural aberrations (%) B: chromosome break ([4]; 3 h, 20 µg/mL): 0.00±0.00% | Number of cells with structural aberrations (%) G: chromosome gap ([4]; 3 h, 20 µg/mL): 0.00±0.00% | Aberrant cell (%) With gap ([4]; 24 h, 5 µg/mL): 4.33±0.58% | Aberrant cell (%) Without gap ([4]; 24 h, 5 µg/mL): 1.67±1.53% | Number of cells with structural aberrations (%) B: chromosome break ([4]; 24 h, 5 µg/mL): 0.00±0.00% | Number of cells with structural aberrations (%) D: dicentric ([4]; 24 h, 5 µg/mL): 0.33±0.58% | Number of cells with structural aberrations (%) G: chromosome gap ([4]; 24 h, 5 µg/mL): 0.33±0.58% | Number of cells with structural aberrations (%) b: chromatid break ([4]; 24 h, 5 µg/mL): 1.00±1.00% | Number of cells with structural aberrations (%) e: exchange ([4]; 24 h, 5 µg/mL): 0.33±0.58% | Number of cells with structural aberrations (%) g: chromatid gap ([4]; 24 h, 5 µg/mL): 2.33±1.53% | Aberrant cell (%) With gap ([4]; 24 h, 10 µg/mL): 4.00±1.00% | Aberrant cell (%) Without gap ([4]; 24 h, 10 µg/mL): 2.67±1.53% | Number of cells with structural aberrations (%) B: chromosome break ([4]; 24 h, 10 µg/mL): 0.00±0.00% | Number of cells with structural aberrations (%) D: dicentric ([4]; 24 h, 10 µg/mL): 0.67±0.58% | Number of cells with structural aberrations (%) G: chromosome gap ([4]; 24 h, 10 µg/mL): 0.67±0.58% | Number of cells with structural aberrations (%) b: chromatid break ([4]; 24 h, 10 µg/mL): 1.33±0.58% | Number of cells with structural aberrations (%) e: exchange ([4]; 24 h, 10 µg/mL): 0.67±0.58% | Number of cells with structural aberrations (%) g: chromatid gap ([4]; 24 h, 10 µg/mL): 1.33±0.58% | Aberrant cell (%) With gap ([4]; 24 h, 20 µg/mL): 4.33±0.58% | Aberrant cell (%) Without gap ([4]; 24 h, 20 µg/mL): 0.67±0.58% | Number of cells with structural aberrations (%) B: chromosome break ([4]; 24 h, 20 µg/mL): 0.33±0.58% | Number of cells with structural aberrations (%) D: dicentric ([4]; 24 h, 20 µg/mL): 0.00±0.00% | Number of cells with structural aberrations (%) G: chromosome gap ([4]; 24 h, 20 µg/mL): 0.33±0.58% | Number of cells with structural aberrations (%) b: chromatid break ([4]; 24 h, 20 µg/mL): 0.00±0.00% | Number of cells with structural aberrations (%) e: exchange ([4]; 24 h, 20 µg/mL): 0.00±0.00% | Number of cells with structural aberrations (%) g: chromatid gap ([4]; 24 h, 20 µg/mL): 3.33±0.58% | LPS-induced IL-1β protein expression [5]: concentration-dependently inhibited | LPS-induced IL-6 protein expression [5]: concentration-dependently inhibited | LPS-induced MMP9 protein expression [5]: concentration-dependently inhibited | protein expression of iNOS [5]: unaffected

Source: paper PMC6359543, “Efficacy of Azatyrosine-Phenylbutyric Hydroxamides, a Histone Deacetylase Inhibitor, on Chemotherapy-Induced Gastrointestinal Mucositis” (International Journal of Molecular Sciences, 2019)
